Patent publication US9468624B2, “Small molecule antagonists of bacterial quorum-sensing receptors” (priority 2008, dated 2016)

What was measured:
[1] = tested on: CviR-dependent violacein production; assay: Violacein production in C. violaceum cviI mutant with exogenous C6-HSL; format: cell-based, Chromobacterium violaceum; conditions: 5 μM C6-HSL, 50 μM antagonist
Protocol: (§1) E. coli strains were grown overnight in LB medium with antibiotics at 37° C. and sub-cultured into fresh medium at a 1:100 dilution. Various AHL and antagonists were added at constant concentrations or titrated as stated. The gfp was measured on an Envision plate reader after 5 hours of growth at 37° C. C. violaceum strains were grown aerobically in 1 mL Nutrient Broth plus 1 mM tryptophan at 30° C. […] Cells were collected via centrifugation at 13000 rpm for 15 minutes. Pellets were resuspended in 1 mL of methanol and incubated at 42° C. for 1 hour. Samples were again collected via centrifugation at 13000 rpm for 5 minutes and analyzed for violacein by measuring optical density at 568 nm on a Beckman Coulter DU-800 spectrophotometer. For the dose-response analyses, all assays were performed in triplicate.
High-throughput chemical library screens had identified 15 molecules that inhibit AHL detection by the membrane-bound two-component AHL receptor LuxN (structures are provided in FIG. 8A). Experiments were undertaken to establish whether any of these LuxN antagonist molecules could also interfere with AHL binding to CviR. […] The native C6-HSL signal was added exogenously and held constant at 5 μM and violacein production was measured in the presence of 50 μM of each potential antagonist (FIG. 8B).

bacterial growth = assay: Bacterial growth in presence of antagonist; format: cell-based, Chromobacterium violaceum
[2] = tested on: CviR-dependent violacein production; assay: Violacein production in wild type C. violaceum, dose-response; format: cell-based; conditions: Chromobacterium violaceum, read-out: IC50 for inhibition of violacein production
Protocol: as §1
To determine if 4606-4237 inhibits violacein production specifically by interfering with CviR, 4606-4237 was tested for antagonism of CviR in the recombinant E. coli vioA-gfp assay. For these experiments, C6-HSL was held constant at 500 nM, while 4606-4237 was titrated from 1.3 nM to 100 μM (FIG. 3D). This concentration of native C6-HSL signal induces maximal gfp production in this heterologous assay system. Importantly, no C. violaceum components other than CviR are present in the recombinant E. coli assay strain. Thus, any inhibition occurring would be due to a specific interaction between the antagonist molecule 4606-4237 and CviR rather than an interaction of 4606-4237 with some unknown component required for violacein production in C. violaceum. […] Thus, 4606-4237 functions by disabling CviR-mediated activation of gene expression in both the C. violaceum in vivo violacein assay and the recombinant E. coli vioA-gfp assay.

[3] = tested on: C. violaceum killing of C. elegans; assay: C. elegans life span assay following C. violaceum infection; format: in vivo, Caenorhabditis elegans; conditions: C. violaceum cviI mutant
Protocol: Life Span Assays. C. elegans lifespan assays were completed with at least 100 wild type N2 worms for each condition. C. elegans eggs were harvested from a large population of gravid adults using a standard bleaching protocol (30 mL 5% bleach, 15 mL N KOH, 55 mL DH2O). Harvested eggs were placed on lawns of fresh E. coli OP50 and allowed to hatch and grow to the young adult (L4) stage before being moved onto lawns of C. violaceum. Worms were scored for survival each day and transferred to new C. violaceum lawns every two days until all worms had expired.
In the presence of the mutant strain, the median C. elegans lifespan is twelve days (FIG. 7A; DMSO control). Exogenous addition of the native autoinducer molecule, C6-HSL restored quorum sensing and complemented the cviI mutant's ability to kill C. elegans (median lifespan=4 days, FIG. 7A).

CviR [4] = biological target: T1, CviR (Chromobacterium violaceum, UniProt D3W065); format: binding; parameters: made in house; host or cells: E. coli BL21(DE3) pLysS, plasmid pET23b; conditions: for DNA binding of ligand-loaded CviR to vioA promoter: CviR 100-500 nM
T1 sequence (D3W065 1-265): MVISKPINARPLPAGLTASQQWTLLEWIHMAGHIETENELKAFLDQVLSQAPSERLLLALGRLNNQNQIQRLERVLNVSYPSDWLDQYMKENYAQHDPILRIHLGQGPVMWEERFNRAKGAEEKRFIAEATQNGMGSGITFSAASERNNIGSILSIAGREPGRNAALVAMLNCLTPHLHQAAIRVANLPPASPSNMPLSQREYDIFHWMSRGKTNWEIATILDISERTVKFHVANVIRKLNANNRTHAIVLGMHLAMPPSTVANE
Protocol: (§2) CviR Overexpression and Purification. CviR was overexpressed in BL21(DE3) pLysS by growing an overnight culture in LB supplemented with 100 μg/mL ampicillin and 10 μg/mL chloramphenicol. The culture was diluted 1:50 into fresh LB supplemented with 100 μg/mL ampicillin and 10 μg/mL chloramphenicol and grown shaking at 37° C. to an OD600 of 0.4. Various AHL or antagonist molecules were added to at 50 μM and incubated an additional 30 minutes at 30° C., after which expression was induced by the addition of 100 μM IPTG (isopropyl-β-D-thiogalactopyranoside) for 4 hours at 30° C. Cells were harvested by centrifugation and lysed in 20 mM imidazole pH 8.0, 100 mM NaCl, 0.5 mM EDTA and 5% glycerol via a Micro-fluidizer processor (MicroFluidics). Protein was purified via ion-exchange using a Hitrap Heparin HP column (GE Healthcare). Protein was eluted with a 100 mM to 1 M NaCl gradient. Fractions containing CviR were pooled and diluted in lysis buffer devoid of NaCl, and then further purified by cation exchange chromatography using a Hitrap SP HP column (GE Healthcare). CviR was eluted with a 100 mM to 1 M NaCl gradient.
DNA probes for gel mobility shift analyses were generated by standard polymerase chain reaction using primers with a 5′ 6-FAM (fluorescein) tag (Integrated DNA Technologies). The target probe contained about 100 nucleotides of the vioA promoter. The control probe contained 300 bases of vioB intergenic DNA. 37 ng of each probe was incubated for 20 minutes at room temperature with the indicated amounts of CviR (0, 0.1, 0.2, 0.3, 0.4 and 0.5 μM) and 1 μg/μL poly-dIdC in 1× Gel shift buffer (40 mM Tris HCl pH 8.0, 100 mM KCL, 2 mM EDTA, 2 mM DTT, 10% glycerol, 200 μg/mL BSA). Gel mobility shifts were performed on 6% TGE-polyacrylamide gels and visualized using a Storm 860 Imaging System (Molecular Dynamics).
To further investigate the mechanism underlying antagonism of the CviR receptor, an examination was undertaken of whether the soluble CviR antagonist complexes were incapable of binding DNA, and thus unable to activate transcription. […] The CviR protein was also purified in complex with each of the synthetic antagonist molecules, 4606-4237, CTL, and CL. Performance of DNA gel mobility shift analyses enabled assessment of the binding of each of these purified, loaded protein complexes to the vioA promoter.
The reciprocal experiment tested whether C6-HSL could replace CL bound to CviR.

CviR [5] = biological target: T1, CviR; format: cell-based; parameters: made in house; host or cells: E. coli BL21(DE3) pLysS, plasmid pET23b; conditions: for EC50: E. coli expressing CviR, vioA-gfp reporter, read-out: EC50 for activation of vioA-gfp expression; for maximal level of vioA-gfp expression: compared with C6-HSL; for induction of vioA-gfp expression through CviR: even at 100 μM
Protocol: (§3) The vioA-gfp promoter fusion was constructed by amplifying the vioA promoter and cloning this region upstream of gfp in pEVS141 at the SphI and SalI sites. Cells containing the vioA-gfp construct were electroporated with the pET23 carrying cviR and selected on LB medium supplemented with 75 μg/mL ampicillin and 50 μg/mL kanamycin. The E. coli strain containing cviR and the vio:gfp reporter is named ELS1257.
as §1
To examine the specificity and sensitivity of CviR, an E. coli strain was engineered that expresses CviR and contains a plasmid harboring the vioA promoter fused to green fluorescent protein (gfp). Thus, the ability of CviR to activate transcription can be assessed by measuring gfp expression in the presence of various molecules.

CviR [6] = biological target: T1, CviR; conditions: CviR expressed in E. coli, whole cell vs soluble extract, ligand 50 μM
Protocol: as §2
The solubility characteristics of CviR were analyzed in the presence of the various molecules under study. […] As controls, the protein was also expressed in the absence of any AHL or antagonist. In each case, whole cell and soluble fractions of cell lysates were analyzed by SDS-PAGE to assess whether the CviR protein in question had been stabilized.

CviR [7] = biological target: T1, CviR; assay: cell-based; format: cell-based; parameters: made in house; host or cells: E. coli BL21(DE3) pLysS, plasmid pET23b; conditions: constant 500 nM C6-HSL; read-out: IC50 for inhibition of vioA-gfp expression
Protocol: as §3, §1
However, binding of the longer acyl-tail length AHL molecules disrupts the transcriptional activation ability of CviR.
To determine if 4606-4237 inhibits violacein production specifically by interfering with CviR, 4606-4237 was tested for antagonism of CviR in the recombinant E. coli vioA-gfp assay. For these experiments, C6-HSL was held constant at 500 nM, while 4606-4237 was titrated from 1.3 nM to 100 μM (FIG. 3D). […] Importantly, no C. violaceum components other than CviR are present in the recombinant E. coli assay strain. Thus, any inhibition occurring would be due to a specific interaction between the antagonist molecule 4606-4237 and CviR rather than an interaction of 4606-4237 with some unknown component required for violacein production in C. violaceum.

| Compound | DNA binding of ligand-loaded CviR to vioA promoter (CviR [4]) | EC50 (CviR [5]) | induction of vioA-gfp expression through CviR (CviR [5]) | IC50 (CviR [7]) | other results |
| --- | --- | --- | --- | --- | --- |
| Cc1cc(Cl)ccc1OCCCC(=O)NC1CCSC1=O (centres unmarked) [4606-4237, 4-(4-chloro-2-methylphenoxy)-N-(2-oxotetrahydrothiophen-3-yl)butanamide] | no ability to bind DNA |  |  |  | violacein production [1]: completely abolished violacein production; inhibition of bacterial growth (bacterial growth): does not inhibit bacterial growth; IC50 [2]: 1200 nM; C. elegans median survival ([3]; C6-HSL 5 μM and 4606-4237 50 μM added simultaneously): twelve; effect on C. elegans ([3]; no C6-HSL, 4606-4237 50 μM): had little affect on C. elegans |
| CCCC(=O)N[C@H]1CCOC1=O [C4-HSL] |  | 12000 nM |  |  | maximal level of vioA-gfp expression (CviR [5]): can induce maximal vioA-gfp expression |
| CCCCCC(=O)N[C@H]1CCOC1=O [C6-HSL, C6-homoserine lactone] | binds DNA with high affinity | 75 nM |  |  | CviR folding and solubility in presence of ligand (CviR [6]): soluble; median C. elegans lifespan ([3]; C6-HSL 5 μM added): 4 days; ligand exchange on loaded CviR, effect on DNA binding (CviR [4]; 500 nM loaded CviR, competing ligand 0-10 μM): not likewise capable of replacing CL to generate fully competent DNA bound complex |
| CCCCCCCC(=O)N[C@H]1CCOC1=O [C8-HSL] | bound DNA with similar affinity to the C6-HSL loaded CviR complex | 30 nM |  |  | maximal level of vioA-gfp expression (CviR [5]): half of the maximal vioA-gfp expression induced by C6-HSL |
| CCCCCCCCCC(=O)N[C@H]1CCOC1=O [C10-HSL, reference compound] | does not abolish DNA binding |  | do not induce vioA-gfp expression | 208 nM | CviR folding and solubility in presence of ligand (CviR [6]): soluble |
| CCCCCCCCCCCC(=O)N[C@H]1CCOC1=O [C12-HSL] | no ability to bind DNA |  | do not induce vioA-gfp expression | 494 nM |  |
| CCCCCCCCCCCCCC(=O)N[C@H]1CCOC1=O [C14-HSL] | no ability to bind DNA |  | do not induce vioA-gfp expression | 268 nM |  |
